Laboratory results taken from paper PMC9231138, “Dihydrotanshinone I Enhances Cell Adhesion and Inhibits Cell Migration in Osteosarcoma U−2 OS Cells through CD44 and Chemokine Signaling” (Molecules, 2022).
Like-named read-outs stand apart in the source and are kept apart here.

How the values were obtained:
U−2 OS cells = assay: MTT cell proliferation assay, U−2 OS cells; format: cell-based; settings: Homo sapiens, U2OS, MTT
Method: (§1) The effects of tanshinones (DS−1 to DS−5) on the proliferation of U−2 OS cells, HeLa cells, and NRK−49F cells were measured by the classical MTT method with minor modifications as follows. Cells were seeded at 5000 per well in 96-well plates, with each group being repeated in 5 wells, and were incubated for 12 h. DS−1 to DS−5 were added at gradient concentrations, then incubated for 24 and 48 h, respectively. Then, 20 μL MTT solution (solved in PBS, 5 mg/mL) was added to every well, and the cells were further incubated at 37 °C for 4 h until a purple precipitate was visible. The plate was centrifuged at 1000 rpm for 1 min; the supernatant was suctioned, and 150 μL of DMSO was added per well; the plate was shaken on a shaker protected from light for 15 min. We placed the plate in an enzyme marker and measured the absorbance values at a 490 nm wavelength.

HeLa cells = assay: MTT cell proliferation assay, HeLa cells; format: cell-based; settings: Homo sapiens, MTT, 24 h, read-out: IC50 HeLa cells (24 h)
Method: as §1

NRK−49F cells = assay: MTT cell proliferation assay, NRK−49F cells; format: cell-based, rat; settings: MTT, 24 h, normal rat kidney cells, read-out: IC50 NRK−49F cells (24 h)
Method: as §1

[1] = 24 h, read-out: IC50 U−2 OS cells (24 h)
[2] = 48 h, read-out: IC50 U−2 OS cells (48 h)

| IC50 (HeLa cells) [µM] | Structure (SMILES) | IC50 (U−2 OS cells; [1]) [µM] | IC50 (U−2 OS cells; [2]) [µM] | IC50 (NRK−49F cells) [µM] |
| --- | --- | --- | --- | --- |
| 20.9 ± 2.81 | Cc1coc2c1C(=O)C(=O)c1c-2ccc2c(C)cccc12 [DS−3, Tanshinone I] | 17.8 ± 1.03 | 4.54 ± 1 | 108 ± 28.9 |
| 25 ± 2.03 | CC1=CCCc2c1ccc1c2C(=O)C(=O)c2c(C)coc2-1 [DS−4, 1,2-Dihydrotanshinquinone] | 22.1 ± 1.31 | 5.89 ± 0.4 | 31.8 ± 1.59 |
| 32.1 ± 1.94 | Cc1coc2c1C(=O)C(=O)c1c-2ccc2c1CCCC2(C)C [DS−5, Tanshinone IIA] | 25.4 ± 1.43 | 5.91 ± 1.08 | > 50 |

| Structure (SMILES) | IC50 (HeLa cells) [µM] | IC50 (U−2 OS cells; [1]) [µM] | IC50 (U−2 OS cells; [2]) [µM] | IC50 (NRK−49F cells) [µM] |
| --- | --- | --- | --- | --- |
| C[C@H]1COC2=C1C(=O)C(=O)c1c2ccc2c1CCCC2(C)C [DS−2, Cryptotanshinone] | 52.1 ± 3.2 | 47.8 ± 4.96 | 25.6 ± 0.81 | 35.4 ± 3.25 |
